From PubChem BioAssay (NCI)
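GI50: concentration for 50% inhibition of growth. TGI denotes the concentration required for complete inhibition of growth.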

Assays:
Assay in all cases: NCI tumour cell line growth inhibition, 384-well format
NCI-H226 lung = tested on: NCI-H226 lung
NCI-H23 lung = tested on: NCI-H23 lung
NCI-H322M lung = tested on: NCI-H322M lung
NCI-H460 NSCLC = tested on: NCI-H460 NSCLC
NCI-H522 lung = tested on: NCI-H522 lung
NCI/ADR-RES ovarian = tested on: NCI/ADR-RES ovarian
OVCAR-3 ovarian = tested on: OVCAR-3 ovarian
OVCAR-4 ovarian = tested on: OVCAR-4 ovarian
OVCAR-5 ovarian = tested on: OVCAR-5 ovarian
OVCAR-8 ovarian = tested on: OVCAR-8 ovarian
PC-3 prostate = tested on: PC-3 prostate
RPMI-8226 leukemia = tested on: RPMI-8226 leukemia
RXF 393 renal = tested on: RXF 393 renal
SF-268 CNS = tested on: SF-268 CNS
SF-295 CNS = tested on: SF-295 CNS
SF-539 CNS = tested on: SF-539 CNS
SK-MEL-2 melanoma = tested on: SK-MEL-2 melanoma
SK-MEL-28 melanoma = tested on: SK-MEL-28 melanoma
SK-MEL-5 melanoma = tested on: SK-MEL-5 melanoma
SK-OV-3 ovarian = tested on: SK-OV-3 ovarian
SN12C renal = tested on: SN12C renal
SNB-19 CNS = tested on: SNB-19 CNS
SNB-75 CNS = tested on: SNB-75 CNS
SR leukemia = tested on: SR leukemia
SW-620 colon = tested on: SW-620 colon
T-47D breast = tested on: T-47D breast
TK-10 renal = tested on: TK-10 renal
U251 glioblastoma = tested on: U251 glioblastoma
UACC-257 melanoma = tested on: UACC-257 melanoma
UACC-62 melanoma = tested on: UACC-62 melanoma

C[C@@H]1COCCN1c1cc(C2(S(C)(=N)=O)CC2)nc(-c2ccnc3[nH]ccc23)n1 (some centres undefined)
TGI (NCI-H226 lung): 46.2 µM
GI50 (NCI-H23 lung): 1.24 µM
TGI (NCI-H23 lung): 3.26 µM
GI50 (NCI-H322M lung): 1.11 µM
TGI (NCI-H322M lung): 5.59 µM
GI50 (NCI-H460 NSCLC): 0.541 µM
TGI (NCI-H460 NSCLC): 4.87 µM
GI50 (NCI-H522 lung): 9.39 µM
TGI (NCI-H522 lung): 25 µM
GI50 (NCI/ADR-RES ovarian): 17 µM
TGI (NCI/ADR-RES ovarian): 53.1 µM
GI50 (OVCAR-3 ovarian): 3.03 µM
TGI (OVCAR-3 ovarian): 18.1 µM
GI50 (OVCAR-4 ovarian): 2 µM
TGI (OVCAR-4 ovarian): 9.93 µM
GI50 (OVCAR-5 ovarian): 3.98 µM
TGI (OVCAR-5 ovarian): 22.4 µM
GI50 (OVCAR-8 ovarian): 5.49 µM
TGI (OVCAR-8 ovarian): 18 µM
GI50 (PC-3 prostate): 5.4 µM
TGI (PC-3 prostate): 31.3 µM
GI50 (RPMI-8226 leukemia): 1.4 µM
TGI (RPMI-8226 leukemia): 3.2 µM
GI50 (RXF 393 renal): 2.67 µM
TGI (RXF 393 renal): 9.58 µM
GI50 (SF-268 CNS): 6.17 µM
TGI (SF-268 CNS): 24 µM
GI50 (SF-295 CNS): 2.47 µM
TGI (SF-295 CNS): 9.13 µM
GI50 (SF-539 CNS): 1.29 µM
TGI (SF-539 CNS): 5.89 µM
GI50 (SK-MEL-2 melanoma): 0.685 µM
TGI (SK-MEL-2 melanoma): 2.46 µM
GI50 (SK-MEL-28 melanoma): 11.6 µM
TGI (SK-MEL-28 melanoma): 24.8 µM
GI50 (SK-MEL-5 melanoma): 3.62 µM
TGI (SK-MEL-5 melanoma): 12.8 µM
GI50 (SK-OV-3 ovarian): 1.78 µM
TGI (SK-OV-3 ovarian): 18.9 µM
GI50 (SN12C renal): 2.96 µM
TGI (SN12C renal): 17.1 µM
GI50 (SNB-19 CNS): 6.13 µM
TGI (SNB-19 CNS): 57.3 µM
GI50 (SNB-75 CNS): 4.52 µM
TGI (SNB-75 CNS): 14.3 µM
GI50 (SR leukemia): 0.153 µM
TGI (SR leukemia): 0.45 µM
GI50 (SW-620 colon): 2.77 µM
TGI (SW-620 colon): 50.4 µM
GI50 (T-47D breast): 8.7 µM
TGI (T-47D breast): > 43.1 µM
GI50 (TK-10 renal): 0.756 µM
TGI (TK-10 renal): 3.58 µM
GI50 (U251 glioblastoma): 4.85 µM
TGI (U251 glioblastoma): 29 µM
GI50 (UACC-257 melanoma): 13 µM
TGI (UACC-257 melanoma): 27.5 µM
GI50 (UACC-62 melanoma): 3.01 µM
TGI (UACC-62 melanoma): 14.4 µM
